Laboratory results: patent US9403803B2, “Indole-3-carboxamides as kinase inhibitors” (Allergan, Inc., priority 2014, dated 2016)

Tests used:
[1] = target: VEGFR2 (KDR) kinase, purified cytoplasmic domain KDR protein (Homo sapiens (Human), UniProt P35968); test: VEGFR2 Kinase Assay; type: biochemical; details: 2.7 μM ATP, poly-Glu-Tyr (4:1) substrate, 15 minute incubation at 30° C.
Protocol: (§1) Biochemical KDR kinase assays were performed in 96 well microtiter plates that were coated overnight with 75 μg/well of poly-Glu-Tyr (4:1) in 10 mM Phosphate Buffered Saline (PBS), pH 7.4. The coated plates were washed with 2 mls per well PBS+0.05% Tween-20 (PBS-T), blocked by incubation with PBS containing 1% BSA, then washed with 2 mls per well PBS-T prior to starting the reaction. Reactions were carried out in 100 μL reaction volumes containing 2.7 μM ATP in kinase buffer (50 mM Hepes buffer pH 7.4, 20 mM MgCl2, 0.1 mM MnCl2 and 0.2 mM Na3VO4). Test compounds were reconstituted in 100% DMSO and added to the reaction to give a final DMSO concentration of 5%. Reactions were initiated by the addition 20 ul per well of kinase buffer containing 200-300 ng purified cytoplasmic domain KDR protein (BPS Bioscience, San Diego, Calif.). Following a 15 minute incubation at 30° C., the reactions were washed 2 mls per well PBS-T. 100 μl of a monoclonal anti-phosphotyrosine antibody-peroxidase conjugate diluted 1:10,000 in PBS-T was added to the wells for 30 minutes. Following a 2 mls per well wash with PBS-Tween-20, 100 μl of O-Phenylenediamine Dihydrochloride in phosphate-citrate buffer, containing urea hydrogen peroxide, was added to the wells for 7-10 minutes as a colorimetric substrate for the peroxidase. The reaction was terminated by the addition of 100 μl of 2.5N H2SO4 to each well and read using a microplate ELISA reader set at 492 nm. IC50 values for compound inhibition were calculated directly from graphs of optical density (arbitrary units) versus compound concentration following subtraction of blank values.

[2] = target: PDGFRβ kinase, purified cytoplasmic domain PDGFR-b protein (Homo sapiens (Human), UniProt P09619); test: PDGFRβ Kinase Assay; type: biochemical; details: 36 μM ATP, poly-Glu-Tyr (4:1) substrate, 60 minute incubation at 30° C.
Protocol: as §1, with “Biochemical PDGFRβ” for “Biochemical KDR”, “75 μg” for “75 μg/well”, “containing 36” for “containing 2.7”, “domain PDGFR-b” for “domain KDR”, “protein (Millipore).” for “protein (BPS Bioscience, San Diego, Calif.).”, “a 60” for “a 15”

VEGFR2 (KDR) kinase, purified cytoplasmic domain KDR protein, sequence (P35968 786-1356, species assumed): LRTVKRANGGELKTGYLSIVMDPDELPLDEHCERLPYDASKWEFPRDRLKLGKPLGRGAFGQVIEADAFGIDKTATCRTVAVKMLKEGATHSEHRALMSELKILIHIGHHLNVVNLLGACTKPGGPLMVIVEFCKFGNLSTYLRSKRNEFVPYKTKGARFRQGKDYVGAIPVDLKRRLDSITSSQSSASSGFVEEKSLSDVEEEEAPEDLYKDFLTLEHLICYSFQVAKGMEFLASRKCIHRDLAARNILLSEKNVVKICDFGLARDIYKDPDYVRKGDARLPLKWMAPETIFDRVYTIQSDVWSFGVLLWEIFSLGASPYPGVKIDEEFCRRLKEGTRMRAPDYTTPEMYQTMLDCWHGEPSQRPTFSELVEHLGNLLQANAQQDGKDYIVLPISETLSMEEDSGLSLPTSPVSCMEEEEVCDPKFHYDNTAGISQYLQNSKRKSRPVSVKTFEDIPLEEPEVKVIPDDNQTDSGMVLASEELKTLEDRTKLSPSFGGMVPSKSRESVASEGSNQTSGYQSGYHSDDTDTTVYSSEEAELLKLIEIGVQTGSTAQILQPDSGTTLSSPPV
PDGFRβ kinase, purified cytoplasmic domain PDGFR-b protein, sequence (P09619 554-1106): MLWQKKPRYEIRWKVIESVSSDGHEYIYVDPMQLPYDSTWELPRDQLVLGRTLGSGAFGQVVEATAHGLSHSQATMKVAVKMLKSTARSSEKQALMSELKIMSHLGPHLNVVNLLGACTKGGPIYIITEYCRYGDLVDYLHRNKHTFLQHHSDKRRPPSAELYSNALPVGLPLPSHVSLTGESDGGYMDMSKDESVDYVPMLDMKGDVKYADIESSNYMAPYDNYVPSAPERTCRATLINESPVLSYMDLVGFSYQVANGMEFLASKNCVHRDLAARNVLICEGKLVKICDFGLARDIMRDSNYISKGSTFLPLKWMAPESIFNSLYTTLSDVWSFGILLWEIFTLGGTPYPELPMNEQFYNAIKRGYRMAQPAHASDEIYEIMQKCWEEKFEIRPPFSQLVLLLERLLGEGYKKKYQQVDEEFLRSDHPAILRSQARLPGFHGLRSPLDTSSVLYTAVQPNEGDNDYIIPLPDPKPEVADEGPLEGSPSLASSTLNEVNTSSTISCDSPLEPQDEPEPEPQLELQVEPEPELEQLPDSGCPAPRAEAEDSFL

| SMILES | IC50 [1] [nM] | IC50 [2] [nM] |
| --- | --- | --- |
| Cc1ccc(F)c(C(=O)Nc2ccc(-c3[nH]c4ccccc4c3C(N)=O)cc2)c1 [Compound 6, 2-{4-[(2-fluoro-5-methylbenzoyl)amino]phenyl}-1H-indole-3-carboxamide] | > 10000 | – |
| CCc1cccc(NC(=O)Nc2ccc(-c3[nH]c4ccccc4c3C(N)=O)cc2)c1 [Compound 4, 2-[4-({[(3-ethylphenyl)amino]carbonyl}amino)phenyl]-1H-indole-3-carboxamide] | 7 | 37 |
| Cc1cccc(NC(=O)Nc2ccc(-c3[nH]c4ccccc4c3C(N)=O)cc2)c1 [Compound 1, 2-[4-({[(3-methylphenyl)amino]carbonyl}amino)phenyl]-1H-indole-3-carboxamide] | 13 | 140 |
| Cc1ccoc1C(=O)Nc1cccc(-c2[nH]c3ccccc3c2C(N)=O)c1 [Compound 9, 2-{3-[(3-methyl-2-furoyl)amino]phenyl}-1H-indole-3-carboxamide] | > 10000 | > 10000 |
| NC(=O)c1c(-c2cccc(NC(=O)Nc3cccc(C(F)(F)F)c3)c2)[nH]c2ccccc12 [Compound 8, 2-{3-[({[3-(trifluoromethyl)phenyl]amino}carbonyl)amino]phenyl}-1H-indole-3-carboxamide] | > 10000 | – |
| NC(=O)c1c(-c2ccc(NC(=O)Nc3cccc(C(F)(F)F)c3)cc2)[nH]c2ccccc12 [Compound 2, 2-{4-[({[3-(trifluoromethyl)phenyl]amino}carbonyl)amino]phenyl}-1H-indole-3-carboxamide] | 7 | 61 |
| Cc1ccc(F)c(NC(=O)Nc2ccc(-c3[nH]c4ccccc4c3C(N)=O)cc2)c1 [Compound 3, 2-[4-({[(2-fluoro-5-methylphenyl)amino]carbonyl}amino)phenyl]-1H-indole-3-carboxamide] | 17 | 267 |
| Cc1ccc(F)c(C(=O)Nc2cccc(-c3[nH]c4ccccc4c3C(N)=O)c2)c1 [Compound 10, 2-{3-[(2-fluoro-5-methylbenzoyl)amino]phenyl}-1H-indole-3-carboxamide] | > 10000 | – |
| Cc1cccc(NC(=O)Nc2cccc(-c3[nH]c4ccccc4c3C(N)=O)c2)c1 [Compound 7, 2-[3-({[(3-methylphenyl)amino]carbonyl}amino)phenyl]-1H-indole-3-carboxamide] | > 10000 | – |
| Cc1ccoc1C(=O)Nc1ccc(-c2[nH]c3ccccc3c2C(N)=O)cc1 [Compound 5, 2-{4-[(3-methyl-2-furoyl)amino]phenyl}-1H-indole-3-carboxamide] | > 10000 | – |
